Experimental data from PMC8401699, “Synthesis, DFT Calculations, Antiproliferative, Bactericidal Activity and Molecular Docking of Novel Mixed-Ligand Salen/8-Hydroxyquinoline Metal Complexes” (Molecules, 2021).
Read-outs that look alike come from different tables or passages of the source.

Experiments:
MDA-MB231 cells = experiment: MTT cytotoxicity assay, MDA-MB231; format: cell-based, human; details: read-out: IC50 Values, MDA-MB231 Cell Line
Protocol: (§1) The cytotoxic activities of the synthesized ligands and metal complexes against the breast cancer cell line MDA-MB231, the hepatic cellular (Hep-G2), and normal cell line (HEK-293) were assessed by MTT assay. A cell suspension was diluted by complete medium to a concentration of 5 × 10^4 cell/mL. Using a micropipette, we pipetted 100 μL aliquots of the cell suspension into each well of 96-well plate (≈5000 cells/well). The 96-well plate was incubated at 37 °C for 24 h to allow cell attachment. After 24 h, cells were treated with 100 µL of growth medium containing […] of the newly synthesized compounds in triplicate. Cells were washed with phosphate-buffered saline (PBS), and fresh relevant medium containing 20 μL MTT in PBS (0.5 mg/mL) was added to the test wells. […] The MTT assay technique is based on the reduction of the tetrazolium salt MTT to insoluble purple formazan by metabolically active cells, making their activities quantifiable by spectrophotometry. […] Cell viability was determined by measuring the absorbance of each well at 570 nm (and at a reference wavelength of 630 nm) using an ELISA plate reader. […] IC50 values were calculated using Graph Pad Prism version 6.01, 2012 (GraphPad software, San Diego, CA, USA), by plotting the log concentration versus corresponding viability (%) to generate dose–response curves. […]

HEK-293 cells = experiment: MTT cytotoxicity assay, normal cell line HEK-293; format: cell-based
Protocol: A cell suspension was diluted by complete medium to a concentration of 5 × 10^4 cell/mL. Using a micropipette, we pipetted 100 μL aliquots of the cell suspension into each well of 96-well plate (≈5000 cells/well). The 96-well plate was incubated at 37 °C for 24 h to allow cell attachment. After 24 h, cells were treated with 100 µL of growth medium containing […] of the newly synthesized compounds in triplicate. Cells were washed with phosphate-buffered saline (PBS), and fresh relevant medium containing 20 μL MTT in PBS (0.5 mg/mL) was added to the test wells. The plate was further incubated in a CO2 incubator at 37 °C for 4 h, and then MTT assay analysis was performed. The MTT assay technique is based on the reduction of the tetrazolium salt MTT to insoluble purple formazan by metabolically active cells, making their activities quantifiable by spectrophotometry. Accordingly, the formed formazan crystals were dissolved in 120 μL DMSO for each well. Cell viability was determined by measuring the absorbance of each well at 570 nm (and at a reference wavelength of 630 nm) using an ELISA plate reader.

Hep-G2 cells = experiment: MTT cytotoxicity assay, Hep-G2; format: cell-based, human; details: read-out: IC50 Values, Hep-G2 Cell Line
Protocol: as §1

Row | melting point [°C] | Structure (SMILES) | IC50 (MDA-MB231 cells; MDA-MB231 breast carcinoma cells) [µM] | IC50 (HEK-293 cells; read-out: IC50 Values, HEK-293 Cell Lines) [µM] | IC50 (Hep-G2 cells; Hep-G2 liver carcinoma cells) [µM] | IC50 (MDA-MB231 cells; Homo sapiens, MDA-MB-231, MDA-MB231 breast carcinoma cells) [µM] | IC50 (HEK-293 cells; Homo sapiens, HEK293, read-out: IC50 Values, HEK-293 Cell Lines) [µM] | IC50 (Hep-G2 cells; Homo sapiens, HepG2, Hep-G2 liver carcinoma cells) [µM]
1 | – | N.N.[Cl][Pt][Cl] [Cisplatin, reference compound] | 1.87 ± 0.09 | 94.1 ± 0.05 | 1.55 ± 0.06 | – | – | –
2 | 127 | Oc1ccccc1C=NCCN=Cc1ccccc1O [S, 2,2′-{1,2-ethanediylbis[nitrilo(E)methylylidene]}diphenol] | – | – | – | 27.54 ± 0.08 | 93.06 ± 0.04 | 1.1 ± 0.1
